One experiment relates to gastric acid secretion. Description: inhibition of gastric acid secretion in the pylorus ligated rat model. Format: in vivo, Male Sprague-Dawley rats. Conditions: for inhibition in vivo at 10 µmol/kg / inhibition in vivo at 2 µmol/kg: Rattus norvegicus, read-out: Percent Inhibition; for ED50: Table VII, estimated from pylorus ligated rat data; for inhibition in vivo at 2 µmol/kg: 2.0 μmoles/kg; for Inhibition: Table VI. The source says:
The gastric acid inhibition activity of direct acting 5-HT1A agonists was established by evaluations using the pylorus ligated rat model. In the pylorus ligated rat model, changes in basal acid secretion may reflect a stimulatory or inhibitory action depending on treatment of compound type tested. The compounds tested were confirmed by various receptor binding tests to have an affinity for the 5-HT1A receptor prior to testing in the pylorus ligated rat model.
The pylorus ligated rat model used is a modification of the procedure developed by Shay (Shay, H., Komarov, A. A. and Greenstein, M.: "Effects of vagotomy in the rat." Arch. Surg. 49:210-226, 1949). Male Sprague-Dawley rats weighing approximately 200 g were starved 24 hours prior to using, with water allowed ad libitum. Under light ether anesthetic the pylorus is ligated, simultaneously the rat is dosed intraperitoneally (i.p.) or subcutaneously (s.c.) and allowed 2 hours for stomach acid accumulation. At the end of 2 hours the rats are sacrificed. Stomach content is measured and titrated to a pH end point of 7.0. Each experiment has its own control group for determining percent of acid change over the 2-hour time period.
Specific compounds within the scope of the above general classes of direct acting 5-HT1A agonists were tested. For evaluation purposes, the compound to be tested is dissolved in distilled water, or in 10% dimethyl sulfoxide, depending upon its solubility. The results of these evaluations are set forth below in Tables I through VI. All compounds were dosed intraperitoneally, unless otherwise indicated.
The ED50 values for certain specific compounds were estimated based on data from the pyrolus ligated rat model evaluations. […] Under "Dose", i.p. means intraperitoneally and s.c. means subcutaneously.

Another experiment concerns gastric secretion. The conditions noted are these: intravenous infusion in humans, cited from earlier work; for inhibition of gastric secretion (in words): spontaneous and histamine induced.
The mark [1] stands for this setting: ip, 2 h, Table IV, 10 μmoles/kg, intraperitoneally, 2 hours.
[2] abbreviates: ip, 2 h, Table V, 10 μmoles/kg, intraperitoneally, 2 hours.
Setting [3] is: ip, 2 h, Table II, 10 μmoles/kg, intraperitoneally, 2 hours.
The mark [4] stands for this setting: Table I, 10 μmoles/kg, intraperitoneally, 2 hours.
The mark [5] stands for this setting: ip, 2 h, Table I, 10 μmoles/kg, intraperitoneally, 2 hours.
Where [6] appears, read: ip, 2 h, Table II, intraperitoneally, 2 hours.
Setting [7] is: 10 μmoles/kg, intraperitoneally, 2 hours.

Like-named read-outs stand apart in the source and are kept apart here. Where only a bound is given, the exact number is not on record here.

By ED50 is commonly meant the midpoint of the dose-response relation.

For the molecule `O=C1NCN(c2ccccc2)C12CCN(CC1COc3ccccc3O1)CC2` (single isomer, unassigned) [Evaluation Example 29], the “Percent Inhibition” value in the experiment on gastric acid secretion (Table V, 10 μmoles/kg, intraperitoneally, 2 hours) is 24.6 ± 9.2%. With `OC(CNC1CC2CCC1C2)COc1ccccc1C1CCCC1` (stereo not shown) [Evaluation Example 20], the inhibition in vivo at 10 µmol/kg with gastric acid secretion (setting [1]) was 72.4 ± 7.5%. In the case of `Oc1cccc2c1OC(CNCCCC1CCCCC1)CO2` (stereo not shown) [Evaluation Example 25, 2-[(3-Cyclohexylpropyl)aminomethyl]-8-hydroxy-1,4-benzodioxane], in the experiment with gastric acid secretion (setting [2]), the inhibition in vivo at 10 µmol/kg was found to be 70.4 ± 8.4%. Same read-out and setting: the same measure for `O=C1NCN(c2ccccc2)C12CCN(CC1COc3ccccc3O1)CC2` (single isomer, unassigned) [Evaluation Example 28]: 29.3 ± 10%. Turning to `CCCN(CCC)C1Cc2c[nH]c3ccc(OC)c(c23)C1` (stereo not shown) [Evaluation Example 14], in the experiment on gastric acid secretion (setting [3]), the inhibition in vivo at 10 µmol/kg is 86.4 ± 4%. Moreover, in the experiment with gastric acid secretion (ip, 2 h, i.p., read-out: ED50), the ED50 was less than 0.1 µmol/kg. Take `CCCN(CCC)[C@@H]1CCc2cccc(SC)c2C1.Cl` [Evaluation Example 2, (R)-8-Thiomethyl-N,N-dipropyl-2-aminotetralin hydrochloride]: the “Percent Inhibition” value in the experiment with gastric acid secretion (setting [4]) was determined as 94.9 ± 1.2%. Moreover, the ED50 in the experiment with gastric acid secretion (i.p., 120 min) was 1.56 µmol/kg.

Turning to `CCCN(CCC)C1CCc2cccc(C(N)=O)c2C1` (stereo not shown) [Evaluation Example 4], the inhibition in vivo at 10 µmol/kg in the experiment with gastric acid secretion (setting [5]) worked out at 82.5 ± 7.4%. For the molecule `CCCN(CCC)C1Cc2c[nH]c3ccc(Br)c(c23)C1` (stereo not shown) [Evaluation Example 12], the inhibition in vivo at 10 µmol/kg with gastric acid secretion (setting [3]) turned out to be 87 ± 1.8%. As for `OC(CNC1CCCC1)COc1ccccc1C1CCCC1` (stereo not shown) [Evaluation Example 24, 1-(2-Cyclopentylphenoxy)-3-(Cyclopentylamino)-2-propanol ethanedioate], the inhibition in vivo at 10 µmol/kg with gastric acid secretion (setting [1]) was 19.7 ± 14.8%. Take `CCCN(CCC)C1Cc2c[nH]c3ccc(C(=O)O)c(c23)C1` (stereo not shown) [Evaluation Example 15]: the inhibition in vivo at 10 µmol/kg in the experiment on gastric acid secretion (setting [3]) came to 81.7 ± 5.8%. Also, in the experiment with gastric acid secretion (ip, 2 h, i.p., read-out: ED50), the ED50 is 1 µmol/kg.

With `NCCc1c[nH]c2ccc(O)cc12` [5-HT, 5-hydroxytryptamine, reference compound], the “inhibition of gastric acid secretion” value with gastric acid secretion (20 micromoles/kg, standard) came to 56.1%. The ED50 in the experiment with gastric acid secretion (ip, 2 h, i.p., read-out: ED50) is 11.5 µmol/kg. Further, in the experiment with gastric secretion, the “production of mucus (in words)” value is listed as “increasing the production of mucus”; the “inhibition of gastric secretion (in words)” value was “inhibits the volume and acidity of both spontaneous and histamine induced gastric secretion”.

On to `OC(CNC1CCCCCCC1)COc1ccccc1C1CCCC1` (stereo not shown) [Evaluation Example 21, 1-(2-Cyclopentylphenoxy)-3-(cyclooctylamino)-2-propanol ethanedioate], for which the inhibition in vivo at 10 µmol/kg with gastric acid secretion (setting [1]) came out at 65.1 ± 5.7%. For the molecule `CCCN(CCC)C1Cc2c[nH]c3ccc(C(=O)OC)c(c23)C1` (racemic) [Evaluation Example 13, (±)-4-(Di-n-propylamino)-1,3,4,5-tetrahydrobenz[c,d]indole-6-carboxylic acid, methyl ester], the inhibition in vivo at 2 µmol/kg with gastric acid secretion (setting [6]) stood at 86.4 ± 2.5%. For the same molecule, the ED50 in the experiment on gastric acid secretion (ip, 2 h, i.p., read-out: ED50) was less than 0.1 µmol/kg. `CCCN(CCC)C1Cc2cn(C(C)C)c3ccc(OC)c(c23)C1` (stereo not shown) [Evaluation Example 16]: the inhibition in vivo at 10 µmol/kg with gastric acid secretion (setting [3]) was 80.9 ± 5.5%. For the molecule `CCOc1cccc2c1OC(CNCCc1ccccc1)CO2` (stereo not shown) [Evaluation Example 27, 2-[(2-phenylethyl)aminomethyl]-8-ethoxy-1,4-benzodioxane], the inhibition in vivo at 10 µmol/kg in the experiment on gastric acid secretion (setting [2]) was 38.3 ± 15.9%. On to `N[C@@H](Cc1c[nH]c2ccc(O)cc12)C(=O)O` [5-HTP, 5-hydroxytryptophane], for which, in the experiment with gastric secretion, the “production of mucus (in words)” value is listed as “increasing the production of mucus”; the “inhibition of gastric secretion (in words)” value is “inhibits the volume and acidity of both spontaneous and histamine induced gastric secretion”. For the molecule `CCCN(CCC)[C@H]1CCc2cccc(SC)c2C1.Cl` [Evaluation Example 3, (S)-8-Thiomethyl-N,N-dipropyl-2-aminotetralin hydrochloride], the “Percent Inhibition” value with gastric acid secretion (setting [4]) stood at 89.8 ± 4.9%. Also, the ED50 with gastric acid secretion (i.p., 120 min) was 1.42 µmol/kg.

`CCCN(CCC)C1CCc2cccc(OC)c2C1` (racemic) [Evaluation Example 1, (±) 8-methoxy-2-(dipropylamino)-1,2,3,4-tetrahydronaphthalene]: the inhibition in vivo at 10 µmol/kg in the experiment with gastric acid secretion (setting [5]) is 96.4 ± 0.7%. Further, the 50% effective dose (ED50) in the experiment with gastric acid secretion (ip, 2 h, i.p., read-out: ED50) was 1.54 µmol/kg. Take `CCCN(CCC)C1Cc2c[nH]c3ccc([N+](=O)[O-])c(c23)C1` (stereo not shown) [Evaluation Example 11]: the inhibition in vivo at 10 µmol/kg in the experiment with gastric acid secretion (setting [3]) stood at 89.8 ± 1.4%.

For the molecule `CCCN(CCC)C1CCc2cccc(Br)c2C1` (stereo not shown) [Evaluation Example 6, 2-Di-n-propylamino-8-bromo-1,2,3,4-tetrahydronaphthalene], the inhibition in vivo at 10 µmol/kg with gastric acid secretion (setting [5]) turned out to be 39.6 ± 10.9%. For the molecule `CCCN(CCC)C1CC1c1ccccc1O` (stereo not shown) [Evaluation Example 32], the Inhibition with gastric acid secretion (setting [7]) turned out to be 22.6 ± 11.8. On to `CCCN(CCC)CCc1c[nH]c2ccc(C(N)=O)cc12` [Evaluation Example 19, N,N-dipropyl-5-carboxamidotryptamine], for which the inhibition in vivo at 10 µmol/kg in the experiment on gastric acid secretion (ip, 2 h) was found to be 92.7 ± 3.3%.

`COc1ccc(CCNCC2COc3ccccc3O2)cc1OC` (stereo not shown) [Evaluation Example 26]: the inhibition in vivo at 10 µmol/kg with gastric acid secretion (setting [2]) was found to be 58.9 ± 6.6%. Consider `CCCN(CCC)C1CCc2cccc(F)c2C1` (stereo not shown) [Evaluation Example 7], for which, in the experiment on gastric acid secretion (setting [5]), the inhibition in vivo at 10 µmol/kg is 24.6 ± 7.9%.

With `c1ccc(CCNCC2COc3ccccc3O2)cc1` (stereo not shown) [Evaluation Example 30, 2-[(2-phenylethyl)aminomethyl]-1,4-benzodioxane], the inhibition in vivo at 10 µmol/kg in the experiment with gastric acid secretion (setting [2]) was 0.3 ± 14.1%.

Consider `CCCN(CCC)C1CC1c1cccc(O)c1` (stereo not shown) [Evaluation Example 31], for which the Inhibition with gastric acid secretion (setting [7]) was found to be 48.2 ± 17.5.

As to `CN(C)C1Cc2c[nH]c3ccc(C=O)c(c23)C1` (racemic) [Evaluation Example 17, (±)-4-(Dimethylamino)-1,3,4,5-tetrahydrobenz[c,d]indole-6-carboxaldehyde], in the experiment on gastric acid secretion (setting [6]), the inhibition in vivo at 2 µmol/kg was determined as 79.2 ± 4.6%. For the same molecule, the ED50 in the experiment with gastric acid secretion (ip, 2 h, i.p., read-out: ED50) is 1.26 µmol/kg. Consider `CCCN(CCC)C1CCc2cccc(O)c2C1` (stereo not shown) [Evaluation Example 8, 8-hydroxy-2-dipropylamino-1,2,3,4-tetrahydronaphthalene, reference compound], for which the inhibition in vivo at 2 µmol/kg in the experiment on gastric acid secretion (ip, 2 h, Table I, intraperitoneally, 2 hours) worked out at 80.1 ± 6.3%. Also, the ED50 was 1.56 µmol/kg with gastric acid secretion (ip, 2 h, i.p., read-out: ED50) and 0.46 µmol/kg in the experiment with gastric acid secretion (sc, 2 h, s.c., read-out: ED50). As for `CN(C)C1Cc2c[nH]c3ccc(C#N)c(c23)C1` (stereo not shown) [Evaluation Example 10], the inhibition in vivo at 10 µmol/kg with gastric acid secretion (setting [3]) is 91.6 ± 3.9%. On to `O=C1CC2(CCCC2)CC(=O)N1CCCCN1CCN(c2ncccn2)CC1` [Evaluation Example 33, 8-[4-[4-(2-pyrimidinyl)-1-piperazinyl]butyl]8-azaspiro[4.5]decane-7,9-dione, reference compound], for which, in the experiment with gastric acid secretion (sc, 2 h, s.c., read-out: ED50), the ED50 is 4.19 µmol/kg.

`CSc1cccc2c1CC(N(C)C)CC2` (stereo not shown) [Evaluation Example 5, 2-Dimethylamino-8-thiomethyl-1,2,3,4-tetrahydronaphthalene]: the inhibition in vivo at 10 µmol/kg in the experiment on gastric acid secretion (setting [5]) came to 80.7 ± 8.4%. Regarding `CCCN(CCC)C1Cc2c[nH]c3ccc(C#N)c(c23)C1` (stereo not shown) [Evaluation Example 9], the inhibition in vivo at 10 µmol/kg in the experiment on gastric acid secretion (setting [3]) was 92.2 ± 3.2%.

Consider `CCCN(CCC)C1Cc2c[nH]c3ccc(C(N)=O)c(c23)C1` (stereo not shown) [Evaluation Example 18], for which the inhibition in vivo at 10 µmol/kg in the experiment on gastric acid secretion (ip, 2 h) worked out at 65.5 ± 7.1%.

Source of the values: patent US5258379A, “Method of inhibiting gastric acid secretion with n-arylpiperazines” (Eli Lilly and Company, priority 1992, dated 1993).
